Test results: PubChem BioAssay AID1745844 (Carcinogenic Potency Database (CPDB), 2022)
Calls of active or inactive are those of the source. No rule for the calls is given here.

Tested on: rodent lifetime carcinogenesis bioassay, tumor incidence TD50
Experiment: carcinogenic potency in animals, long-term in vivo studies, CPDB compilation (AID 1745844)

O=C1c2ccccc2CN2C(=O)c3ccccc3CN12 was tested, and the TD50 (mouse, strain BALB/cLacDp, females, in feed, site: liver, lesion: angioma, dosed 80 weeks, study length 119 weeks) was 7130 mg/kg/day, the TD50 (mouse, strain BALB/cLacDp, females, in feed, site: liver, lesion: angiosarcoma, dosed 80 weeks, study length 119 weeks) was 852 mg/kg/day and the TD50 (mouse, strain BALB/cLacDp, females, in feed, site: liver, lesion: hepatocellular adenoma, dosed 80 weeks, study length 119 weeks) was 1150 mg/kg/day. The TD50 (mouse, strain BALB/cLacDp, females, in feed, site: liver, lesion: hepatocellular carcinoma, dosed 80 weeks, study length 119 weeks) was 3540 mg/kg/day, the TD50 (mouse, strain BALB/cLacDp, females, in feed, site: lung, lesion: several types, types named in the paper, dosed 80 weeks, study length 119 weeks) was 269 mg/kg/day (inactive) and the TD50 (mouse, strain BALB/cLacDp, males, in feed, site: liver, lesion: angioma, dosed 80 weeks, study length 119 weeks) was 1370 mg/kg/day. The TD50 (mouse, strain BALB/cLacDp, males, in feed, site: liver, lesion: angiosarcoma, dosed 80 weeks, study length 119 weeks) was 879 mg/kg/day and the TD50 (mouse, strain BALB/cLacDp, males, in feed, site: lung, lesion: several types, types named in the paper, dosed 80 weeks, study length 119 weeks) was 412 mg/kg/day (inactive).
CC1=NN(c2ccccc2)C(=O)C1 was tested, and the carcinogen call (mouse, strain B6C3F1, females, in feed, site: any site (literature study), lesion: several types, types named in the paper, dosed 102 weeks, study length 104 weeks) was “negative (inactive)”, the carcinogen call (mouse, strain B6C3F1, males, in feed, site: any site (literature study), lesion: several types, types named in the paper, dosed 102 weeks, study length 104 weeks) was “negative (inactive)” and the carcinogen call (rat, strain Fischer 344, females, in feed, site: any site (literature study), lesion: several types, types named in the paper, dosed 103 weeks, study length 105 weeks) was “negative (inactive)”. For the same molecule, the carcinogen call (rat, strain Fischer 344, males, in feed, site: any site (literature study), lesion: several types, types named in the paper, dosed 103 weeks, study length 105 weeks) was “negative (inactive)” and the TD50 (rat, strain Fischer 344, males, in feed, site: liver, lesion: hepatocellular adenoma + hepatocellular carcinoma + neoplastic nodule, dosed 103 weeks, study length 105 weeks) was 3700 mg/kg/day.
With CC(=O)NNC(=O)c1ccncc1 the TD50 (mouse, strain Swiss albino, females, in drinking water, site: liver, lesion: several types, types named in the paper, dosed 94 weeks, study length 94 weeks) was 55700 mg/kg/day, the TD50 (mouse, strain Swiss albino, females, in drinking water, site: lung, lesion: several types, types named in the paper, dosed 94 weeks, study length 94 weeks) was 319 mg/kg/day and the carcinogen call (mouse, strain Swiss albino, males, in drinking water, site: liver, lesion: hemangioma, dosed 92 weeks, study length 92 weeks) was “negative (inactive)”. It also gave a TD50 (mouse, strain Swiss albino, males, in drinking water, site: lung, lesion: several types, types named in the paper, dosed 92 weeks, study length 92 weeks) of 342 mg/kg/day.
CC=CCl was tested, and the TD50 (mouse, strain Ha/ICR, females, by gavage, site: forestomach, lesion: one or several types, types not named, dosed 89 weeks, study length 89 weeks) was 5.05 mg/kg/day and the TD50 (mouse, strain Ha/ICR, males, by gavage, site: forestomach, lesion: one or several types, types not named, dosed 89 weeks, study length 89 weeks) was 16.7 mg/kg/day.
Nc1ccc2c(n1)[nH]c1ccccc12 was tested, and the TD50 (mouse, strain CDF1, females, in feed, site: blood vessels, lesion: hemangioendothelial sarcoma, dosed 97 weeks, study length 97 weeks) was 381 mg/kg/day, the TD50 (mouse, strain CDF1, females, in feed, site: liver, lesion: hepatocellular carcinoma, dosed 97 weeks, study length 97 weeks) was 44.7 mg/kg/day and the TD50 (mouse, strain CDF1, females, in feed, site: liver, lesion: several types, types named in the paper, dosed 97 weeks, study length 97 weeks) was 35.6 mg/kg/day. The TD50 (mouse, strain CDF1, females, in feed, site: lung, lesion: adenoma, dosed 97 weeks, study length 97 weeks) was 795 mg/kg/day, the TD50 (mouse, strain CDF1, females, in feed, site: lung, lesion: several types, types named in the paper, dosed 97 weeks, study length 97 weeks) was 1150 mg/kg/day and the TD50 (mouse, strain CDF1, males, in feed, site: blood vessels, lesion: hemangioendothelial sarcoma, dosed 97 weeks, study length 97 weeks) was 103 mg/kg/day. It also gave a TD50 (mouse, strain CDF1, males, in feed, site: blood vessels, lesion: several types, types named in the paper, dosed 97 weeks, study length 97 weeks) of 82.6 mg/kg/day, a TD50 (mouse, strain CDF1, males, in feed, site: liver, lesion: hepatocellular adenoma, dosed 97 weeks, study length 97 weeks) of 352 mg/kg/day and a TD50 (mouse, strain CDF1, males, in feed, site: liver, lesion: hepatocellular carcinoma, dosed 97 weeks, study length 97 weeks) of 225 mg/kg/day. The TD50 (mouse, strain CDF1, males, in feed, site: liver, lesion: several types, types named in the paper, dosed 97 weeks, study length 97 weeks) was 122 mg/kg/day.
CN(C)c1ccccc1 gave a TD50 (mouse, strain B6C3F1, females, by gavage, site: any site (literature study), lesion: several types, types named in the paper, dosed 103 weeks, study length 104 weeks) of 108 mg/kg/day, a TD50 (mouse, strain B6C3F1, females, by gavage, site: forestomach, lesion: squamous-cell papilloma, dosed 103 weeks, study length 104 weeks) of 99.3 mg/kg/day and a TD50 (mouse, strain B6C3F1, females, by gavage, site: liver, lesion: hepatocellular adenoma + hepatocellular carcinoma + neoplastic nodule, dosed 103 weeks, study length 104 weeks) of 163 mg/kg/day. For the same molecule, the TD50 (mouse, strain B6C3F1, females, by gavage, site: lung, lesion: alveolar/bronchiolar adenoma + alveolar/bronchiolar carcinoma, dosed 103 weeks, study length 104 weeks) was 276 mg/kg/day, the TD50 (mouse, strain B6C3F1, males, by gavage, site: any site (literature study), lesion: several types, types named in the paper, dosed 103 weeks, study length 104 weeks) was 489 mg/kg/day (inactive) and the TD50 (mouse, strain B6C3F1, males, by gavage, site: liver, lesion: hepatocellular adenoma + hepatocellular carcinoma + neoplastic nodule, dosed 103 weeks, study length 104 weeks) was 216 mg/kg/day. For the same molecule, the TD50 (mouse, strain B6C3F1, males, by gavage, site: lung, lesion: alveolar/bronchiolar adenoma + alveolar/bronchiolar carcinoma, dosed 103 weeks, study length 104 weeks) was 102 mg/kg/day, the carcinogen call (rat, strain Fischer 344, females, by gavage, site: any site (literature study), lesion: several types, types named in the paper, dosed 103 weeks, study length 104 weeks) was “negative (inactive)” and the TD50 (rat, strain Fischer 344, males, by gavage, site: any site (literature study), lesion: several types, types named in the paper, dosed 103 weeks, study length 104 weeks) was 93.2 mg/kg/day. The TD50 (rat, strain Fischer 344, males, by gavage, site: splenic red pulp, lesion: osteosarcoma + sarcoma, NOS, dosed 103 weeks, study length 104 weeks) was 125 mg/kg/day and the TD50 (rat, strain Fischer 344, males, by gavage, site: splenic red pulp, lesion: sarcoma, NOS, dosed 103 weeks, study length 104 weeks) was 175 mg/kg/day.
In the case of CC(=O)CN(N=O)C(=O)NCCCl, the TD50 (hamster, strain Syrian Golden, females, by gavage, site: spleen, lesion: all vascular tumors, dosed 43 weeks, study length 75 weeks) is reported as 0.774 mg/kg/day, the TD50 (hamster, strain Syrian Golden, males, by gavage, site: spleen, lesion: hemangiosarcoma, dosed 43 weeks, study length 75 weeks) is reported as 0.216 mg/kg/day and the TD50 (rat, strain Fischer 344, females, by gavage, site: liver, lesion: one or several types, types not named, dosed 30 weeks, study length 104 weeks) is reported as 1.36 mg/kg/day. The TD50 (rat, strain Fischer 344, females, by gavage, site: nervous system, lesion: one or several types, types not named, dosed 30 weeks, study length 104 weeks) was 4.49 mg/kg/day, the TD50 (rat, strain Fischer 344, females, in drinking water, site: lung, lesion: one or several types, types not named, dosed 30 weeks, study length 104 weeks) was 4.49 mg/kg/day and the TD50 (rat, strain Fischer 344, females, in drinking water, site: nervous system, lesion: one or several types, types not named, dosed 30 weeks, study length 104 weeks) was 4.49 mg/kg/day. The TD50 (rat, strain Fischer 344, males, by gavage, site: lung, lesion: one or several types, types not named, dosed 30 weeks, study length 104 weeks) was 3.14 mg/kg/day, the TD50 (rat, strain Fischer 344, males, by gavage, site: nervous system, lesion: one or several types, types not named, dosed 30 weeks, study length 104 weeks) was 0.951 mg/kg/day and the TD50 (rat, strain Fischer 344, males, in drinking water, site: liver, lesion: one or several types, types not named, dosed 30 weeks, study length 104 weeks) was 3.14 mg/kg/day. It also gave a TD50 (rat, strain Fischer 344, males, in drinking water, site: lung, lesion: one or several types, types not named, dosed 30 weeks, study length 104 weeks) of 1.5 mg/kg/day and a TD50 (rat, strain Fischer 344, males, in drinking water, site: nervous system, lesion: one or several types, types not named, dosed 30 weeks, study length 104 weeks) of 3.14 mg/kg/day.
